Molecules are shown by their SMILES. Where a name gives a salt, the structure may show the parent alone.

This test deals with T1, epithelial sodium channel (ENaC) (Homo sapiens, UniProt P37088+P51168+P51170).
T1 construct: host or cells: primary human bronchial epithelial cells (HBECs), differentiated at air-liquid interface
T1 sequence (P37088 1-669): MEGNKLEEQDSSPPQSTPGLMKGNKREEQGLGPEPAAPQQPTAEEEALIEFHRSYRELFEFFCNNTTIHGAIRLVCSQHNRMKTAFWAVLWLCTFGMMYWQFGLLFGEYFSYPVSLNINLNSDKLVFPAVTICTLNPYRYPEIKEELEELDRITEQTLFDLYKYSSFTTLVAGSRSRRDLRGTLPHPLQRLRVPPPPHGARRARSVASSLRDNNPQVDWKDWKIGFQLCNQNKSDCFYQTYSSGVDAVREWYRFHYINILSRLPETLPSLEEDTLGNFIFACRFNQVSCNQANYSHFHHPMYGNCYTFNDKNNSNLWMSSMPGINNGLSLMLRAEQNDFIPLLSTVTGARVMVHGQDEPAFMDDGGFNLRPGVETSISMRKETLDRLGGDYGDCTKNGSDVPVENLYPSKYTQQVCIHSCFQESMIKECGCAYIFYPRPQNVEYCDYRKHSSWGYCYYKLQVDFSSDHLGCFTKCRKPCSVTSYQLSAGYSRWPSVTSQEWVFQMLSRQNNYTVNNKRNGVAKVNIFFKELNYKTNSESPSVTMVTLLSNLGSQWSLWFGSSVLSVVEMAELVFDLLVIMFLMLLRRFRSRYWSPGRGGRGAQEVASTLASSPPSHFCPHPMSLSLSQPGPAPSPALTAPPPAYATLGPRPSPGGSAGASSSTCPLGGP
T1 sequence (P51168 1-640): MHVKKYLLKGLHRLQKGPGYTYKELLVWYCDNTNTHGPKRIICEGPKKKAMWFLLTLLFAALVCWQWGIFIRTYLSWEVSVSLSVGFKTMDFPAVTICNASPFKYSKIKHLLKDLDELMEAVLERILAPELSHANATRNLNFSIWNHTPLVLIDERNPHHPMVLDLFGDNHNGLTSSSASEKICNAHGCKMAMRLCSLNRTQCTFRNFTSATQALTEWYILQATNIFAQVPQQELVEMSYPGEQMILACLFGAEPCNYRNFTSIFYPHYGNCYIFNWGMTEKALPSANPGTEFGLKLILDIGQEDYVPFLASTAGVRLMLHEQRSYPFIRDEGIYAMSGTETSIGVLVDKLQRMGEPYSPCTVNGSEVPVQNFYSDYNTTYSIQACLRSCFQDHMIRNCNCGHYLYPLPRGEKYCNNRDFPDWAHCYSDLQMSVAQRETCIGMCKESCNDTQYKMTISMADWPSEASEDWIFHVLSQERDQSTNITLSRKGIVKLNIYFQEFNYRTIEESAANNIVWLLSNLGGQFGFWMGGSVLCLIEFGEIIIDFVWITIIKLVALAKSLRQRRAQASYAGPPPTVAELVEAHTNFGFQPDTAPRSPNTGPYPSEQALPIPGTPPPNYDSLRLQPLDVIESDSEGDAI
T1 sequence (P51170 1-649): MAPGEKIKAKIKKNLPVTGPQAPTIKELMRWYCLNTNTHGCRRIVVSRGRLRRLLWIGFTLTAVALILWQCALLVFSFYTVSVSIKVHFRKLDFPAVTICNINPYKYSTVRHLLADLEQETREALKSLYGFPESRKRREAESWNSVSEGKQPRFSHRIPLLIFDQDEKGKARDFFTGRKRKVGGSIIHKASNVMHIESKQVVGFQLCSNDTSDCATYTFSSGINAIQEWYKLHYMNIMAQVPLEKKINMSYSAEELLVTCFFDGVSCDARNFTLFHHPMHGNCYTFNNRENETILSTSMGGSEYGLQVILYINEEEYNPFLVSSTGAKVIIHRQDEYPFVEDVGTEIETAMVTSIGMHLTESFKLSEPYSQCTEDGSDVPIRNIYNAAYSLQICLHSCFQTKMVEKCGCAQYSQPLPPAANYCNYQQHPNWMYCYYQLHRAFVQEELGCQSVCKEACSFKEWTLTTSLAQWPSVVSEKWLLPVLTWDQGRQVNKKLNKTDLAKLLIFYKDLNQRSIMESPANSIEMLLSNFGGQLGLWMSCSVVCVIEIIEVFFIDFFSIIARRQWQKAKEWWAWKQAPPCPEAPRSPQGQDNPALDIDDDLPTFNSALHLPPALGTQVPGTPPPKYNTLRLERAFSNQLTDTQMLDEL
The test can be described thus: Short circuit current (ISC) measurements in Human Bronchial Epithelial cells. Particulars: HBECs at air-liquid interface, Ussing chamber, apical addition; read-out: IC50 (inhibition of the amiloride-sensitive ISC). The test is classed as cell-based. On the procedure: Human Bronchial Epithelial cells (HBECs) (Cambrex) were cultured under air-liquid interface conditions to provide a well differentiated mucociliary phenotype.
HBECs were cultured using a modification of the method described by Gray and colleagues
(Gray et al., 1996). Cells were seeded in plastic T-162 flasks and were grown in bronchial epithelial cell growth medium (BEGM; Cambrex) supplemented with bovine pituitary extract (52 μg/mL), hydrocortisone (0.5 μg/mL), human recombinant epidermal growth factor ([…]), epinephrine (0.5 μg/mL), transferrin (10 μg/mL), insulin (5 μg/mL), retinoic acid (0.1 μg/mL), triiodothyronine ([…]), gentamycin (50 μg/mL) and amphotericin B (50 μg/mL). Medium was changed every 48 hours until cells were 90% confluent. Cells were then passaged and seeded (8.25×10^5 cells/insert) on polycarbonate Snapwell inserts (Costar) in differentiation media containing 50% DMEM in BEGM with the same supplements as above but without triiodothyronine and a final retinoic acid concentration of 50 nM (all-trans retinoic acid). Cells were maintained submerged for the first 7 days in culture, after which time they were exposed to an apical air interface for the remainder of the culture period. At this time, media was changed to DMEM:F12 media containing 2% v/v Ultroser G for the remainder of culture. Amphotericin B was removed from all media 3 feeds prior to use in the Ussing Chambers. Cells were used between days 7 and 21 after establishment of the apical-air interface. At all stages of culture, cells were maintained at 37° C. in 5% CO2 in an air incubator.
Snapwell inserts were mounted in Vertical Diffusion Chambers (Costar) and were bathed with continuously gassed Ringer solution (5% CO2 in O2; pH 7.4) maintained at 37° C. containing (in mM): 120 NaCl, 25 NaHCO3, 3.3 KH2PO4, 0.8 K2HPO4, 1.2 CaCl2, 1.2 MgCl2, and 10 glucose. The solution osmolarity was between 280 and 300 mOsmol/kg H2O for all physiological salt solutions used. Cells were voltage clamped to 0 mV (model EVC4000; WPI). RT was measured by applying a 1- or 2-mV pulse at 30-s intervals and calculating RT by Ohm's law. Data were recorded using a PowerLab workstation (ADInstruments).
Test compounds were prepared as a 10 mM stock solution in DMSO (95%). Serial 3-fold dilutions were freshly prepared in an appropriate vehicle (distilled H2O or Ringers solution). […] At the completion of the concentration-response experiment, amiloride (10 μM) was added into the apical chamber to enable the total amiloride-sensitive current to be measured. […]
Results are expressed as the mean % inhibition of the amiloride-sensitive ISC. […] Cell inserts were typically run in duplicate and the IC50 calculated on the mean % inhibition data.
Take `N=C(NCCCCCCNS(=O)(=O)c1cccc2ccccc12)NC(=O)c1nc(Cl)c(N)nc1N` [Example 3]: the IC50 came to 16.4 nM.
Regarding `N=C(NCCCC(=O)N(Cc1ccccc1)[C@H]1CC2CC[C@H](C1)N2Cc1ccccc1)NC(=O)c1nc(Cl)c(N)nc1N` [Example 12], the IC50 worked out at 65.9 nM.
For `COC(=O)[C@H](CCCCNC(=N)NC(=O)c1nc(Cl)c(N)nc1N)NS(=O)(=O)c1ccc(C)cc1` [Example 17, (S)-6-[N′-(3,5-Diamino-6-chloro-pyrazine-2-carbonyl)-guanidino]-2-(toluene-4 sulfonylamino)-hexanoic acid methyl ester trifluoroacetate], the IC50 was 33 nM.
As to `N=C(NCCCCNC(=O)Cc1ccccc1)NC(=O)c1nc(Cl)c(N)nc1N` [Example 25], the half-inhibitory concentration (IC50) was determined as 18 nM.

In general, IC50 refers to the concentration that gives 50% inhibition.

Source of the values: patent US20080312212A1, “Organic Compounds” (Novartis AG, priority 2005, published 2008).
